In patent publication US20080228408A1, “Method for Determining the State of an Ensemble of Cells and System for the Implementation of the Method” (priority 2005, published 2008):

System: neuronal cells
Assay: Toxicogenomic DNA chip test: gene expression level (RES) in cells exposed to the compound compared to unexposed cells
Assay type: cell-based
Description: One wishes to carry out the evaluation of the toxicity of a collection of (15) pesticides using a toxicogenomic analysis of the impact of these pesticides on neuronal cells, according to 4 modes of exposure of the cells to the compounds:
DNA chips built specifically to test the expression level of the 51 genes in cells under study, each chip being configured only for one gene in our case, each chip allowing to carry out for each gene a redundant number of measurements (16) in order to stabilize the levels of expression by analysing the results on average. The spots on the chips are numbered sp1 to sp16.
An automated device D5 allowing, on signal of execution of the C2 test, to take a E1 sample of the cell culture C (non exposed) and a E2 sample of the cell culture C exposed to the compound by the device described previously under the conditions specified with the configuration, then to use the D1 device to select a DNA chip corresponding to the gene specified at the time of the configuration, and to put the samples E1 and E2 thus obtained in the presence of the aforementioned DNA chip according to the methods described in the D1 device,
The result of a test, RES, transmitted by the Resource Unit to the PC, is a raw numerical value which indicates the expression level of the gene indicated in the configuration, for the cell exposed to the compound under the conditions of concentration and exposure duration specified in the configuration, compared to the expression level of the same gene in an unexposed cell of identical nature.
The following results are based on 3 evaluations, each using a different strategy, the target cells being neuronal cells, the mode of exposure being Expo11.
The results presented in table 2 show the values obtained in (052) for the evaluation of Paraquat according to the 4 modes Expo11, Expo12, Expo21, Expo22 carried out. The missing data are not relevant (ranging between 0.5 and 2 strictly).

[1] = Neuron, C2 (IC50/10), 24 h (Expo21)
[2] = Neuron, C2 (IC50/10), 48 h (Expo22)
[3] = neuronal cells, Expo11 (IC50, 24 h), strategy of selection by class

## C[n+]1ccc(-c2cc[n+](C)cc2)cc1 [Paraquat]
[1]
  ALB gene expression level RES (exposed/unexposed cells): 0.34
  APAF1 gene expression level RES (exposed/unexposed cells): 0.20
  AR gene expression level RES (exposed/unexposed cells): 0.08
  ATF6 gene expression level RES (exposed/unexposed cells): 0.17
  ATM gene expression level RES (exposed/unexposed cells): 0.11
  BAX gene expression level RES (exposed/unexposed cells): 0.09
  BCL2 gene expression level RES (exposed/unexposed cells): 0.14
  BZRP gene expression level RES (exposed/unexposed cells): 0.14
  C12ORF8 gene expression level RES (exposed/unexposed cells): 0.22
  CALR gene expression level RES (exposed/unexposed cells): 0.38
  CDC25C gene expression level RES (exposed/unexposed cells): 0.37
  CDK4 gene expression level RES (exposed/unexposed cells): 0.29
  CDKN1A gene expression level RES (exposed/unexposed cells): 0.13
  CREB1 gene expression level RES (exposed/unexposed cells): 0.29
  CTSB gene expression level RES (exposed/unexposed cells): 0.20
  CTSD gene expression level RES (exposed/unexposed cells): 0.05
  EGF gene expression level RES (exposed/unexposed cells): 0.21
  EPHX1 gene expression level RES (exposed/unexposed cells): 0.19
  FOS gene expression level RES (exposed/unexposed cells): 0.12
  GADD45A gene expression level RES (exposed/unexposed cells): 0.20
  GPX1 gene expression level RES (exposed/unexposed cells): 0.09
  GSS gene expression level RES (exposed/unexposed cells): 0.28
  GSTM3 gene expression level RES (exposed/unexposed cells): 0.36
  HOXD1 gene expression level RES (exposed/unexposed cells): 0.11
  HSPA5 gene expression level RES (exposed/unexposed cells): 0.33
  HSPA9B gene expression level RES (exposed/unexposed cells): 0.16
  JUN gene expression level RES (exposed/unexposed cells): 0.33
  MDM2 gene expression level RES (exposed/unexposed cells): 0.05
  NFKB1 gene expression level RES (exposed/unexposed cells): 0.26
  NOS2A gene expression level RES (exposed/unexposed cells): 0.30
  PARA gene expression level RES (exposed/unexposed cells): 0.04
  PGR gene expression level RES (exposed/unexposed cells): 0.12
  RAD50 gene expression level RES (exposed/unexposed cells): 0.35
  RAD51 gene expression level RES (exposed/unexposed cells): 0.22
  SOD1 gene expression level RES (exposed/unexposed cells): 0.24
  TF1 gene expression level RES (exposed/unexposed cells): 0.53
  THBS1 gene expression level RES (exposed/unexposed cells): 0.08
  TP53 gene expression level RES (exposed/unexposed cells): 0.31
  TUBA1 gene expression level RES (exposed/unexposed cells): 0.03
  XBP1 gene expression level RES (exposed/unexposed cells): 0.24
[2]
  A2M gene expression level RES (exposed/unexposed cells): 0.04
  AITCH gene expression level RES (exposed/unexposed cells): 0.03
  ALB gene expression level RES (exposed/unexposed cells): 0.02
  APAF1 gene expression level RES (exposed/unexposed cells): 0.05
  AR gene expression level RES (exposed/unexposed cells): 0.05
  ATF6 gene expression level RES (exposed/unexposed cells): 0.06
  ATM gene expression level RES (exposed/unexposed cells): 0.04
  BAX gene expression level RES (exposed/unexposed cells): 0.05
  BCL2 gene expression level RES (exposed/unexposed cells): 0.03
  BZRP gene expression level RES (exposed/unexposed cells): 0.04
  C12ORF8 gene expression level RES (exposed/unexposed cells): 0.04
  CALR gene expression level RES (exposed/unexposed cells): 0.11
  CDC25C gene expression level RES (exposed/unexposed cells): 0.05
  CDK4 gene expression level RES (exposed/unexposed cells): 0.06
  CDKN1A gene expression level RES (exposed/unexposed cells): 0.02
  CREB1 gene expression level RES (exposed/unexposed cells): 0.05
  CTSB gene expression level RES (exposed/unexposed cells): 0.06
  CTSD gene expression level RES (exposed/unexposed cells): 0.03
  EGF gene expression level RES (exposed/unexposed cells): 0.05
  EPHX1 gene expression level RES (exposed/unexposed cells): 0.08
  FOS gene expression level RES (exposed/unexposed cells): 0.05
  GADD45A gene expression level RES (exposed/unexposed cells): 0.04
  GPX1 gene expression level RES (exposed/unexposed cells): 0.02
  GSS gene expression level RES (exposed/unexposed cells): 0.03
  GSTM3 gene expression level RES (exposed/unexposed cells): 0.06
  HOXD1 gene expression level RES (exposed/unexposed cells): 0.05
  HSPA5 gene expression level RES (exposed/unexposed cells): 0.07
  HSPA9B gene expression level RES (exposed/unexposed cells): 0.06
  JUN gene expression level RES (exposed/unexposed cells): 0.05
  MDM2 gene expression level RES (exposed/unexposed cells): 0.06
  NFKB1 gene expression level RES (exposed/unexposed cells): 0.05
  NOS2A gene expression level RES (exposed/unexposed cells): 0.06
  PARA gene expression level RES (exposed/unexposed cells): 0.05
  PGR gene expression level RES (exposed/unexposed cells): 0.04
  RAD50 gene expression level RES (exposed/unexposed cells): 0.06
  RAD51 gene expression level RES (exposed/unexposed cells): 0.06
  SOD1 gene expression level RES (exposed/unexposed cells): 0.04
  TF1 gene expression level RES (exposed/unexposed cells): 0.05
  THBS1 gene expression level RES (exposed/unexposed cells): 0.06
  TP53 gene expression level RES (exposed/unexposed cells): 0.05
  TUBA1 gene expression level RES (exposed/unexposed cells): 0.04
  XBP1 gene expression level RES (exposed/unexposed cells): 0.06
[3]
  A2M marker test: relevant level of expression (RES <=0.5 or >=2): relevant result
  CDKN1A marker test: relevant level of expression (RES <=0.5 or >=2): relevant result was found
  CYP19A1 marker test: relevant level of expression (RES <=0.5 or >=2): did not provide any relevant result
  SOD1 marker test: relevant level of expression (RES <=0.5 or >=2): without success
